Reference: PubChem BioAssay (NCI)
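All cell lines were grown in 96-well plates and treated with compound for 48 hours. At the TGI there is no net growth.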

Experiments:
Assay in all cases: inhibition of tumour cell growth, NCI panel, 48 h
TK-10 renal = test system: TK-10 renal
SK-MEL-28 melanoma = test system: SK-MEL-28 melanoma
CCRF-CEM leukemia = test system: CCRF-CEM leukemia
MCF7 breast = test system: MCF7 breast
DU-145 prostate = test system: DU-145 prostate
SK-OV-3 ovarian = test system: SK-OV-3 ovarian
A498 renal = test system: A498 renal
SK-MEL-2 melanoma = test system: SK-MEL-2 melanoma
SK-MEL-5 melanoma = test system: SK-MEL-5 melanoma
SF-295 CNS = test system: SF-295 CNS
KM12 colon = test system: KM12 colon
M14 melanoma = test system: M14 melanoma
UACC-257 melanoma = test system: UACC-257 melanoma
NCI-H460 lung = test system: NCI-H460 lung
CAKI-1 renal = test system: CAKI-1 renal
786-0 renal = test system: 786-0 renal
LOX IMVI melanoma = test system: LOX IMVI melanoma

| Structure (SMILES) | TGI (TK-10 renal) | TGI (SK-MEL-28 melanoma) | TGI (CCRF-CEM leukemia) | TGI (MCF7 breast) | TGI (DU-145 prostate) | TGI (SK-OV-3 ovarian) | TGI (A498 renal) | TGI (SK-MEL-2 melanoma) | TGI (SK-MEL-5 melanoma) | TGI (SF-295 CNS) | TGI (KM12 colon) | TGI (M14 melanoma) | TGI (UACC-257 melanoma) | TGI (NCI-H460 lung) | TGI (CAKI-1 renal) | TGI (786-0 renal) | TGI (LOX IMVI melanoma) |
| --- | --- | --- | --- | --- | --- | --- | --- | --- | --- | --- | --- | --- | --- | --- | --- | --- | --- |
| COc1ccc2c(c1)nc1n2C(c2c(F)cccc2Cl)SC1 (configuration not stated) | > 76.8 µM | 37.2 µM | > 100 µM | > 34.8 µM | > 29.3 µM | > 38.1 µM | > 29.7 µM | > 27.7 µM | > 43.2 µM | > 24.8 µM | > 54.4 µM | > 24.7 µM | > 43.2 µM | > 35.1 µM | > 100 µM | > 41.1 µM | > 61.6 µM |
| O=C(/C=C(\Nc1ccccc1O)c1ccccc1)C(=O)NC12CC3CC(CC(C3)C1)C2 | > 10 µM | > 10 µM | > 10 µM | > 10 µM | > 10 µM | > 10 µM | > 10 µM | > 10 µM | > 10 µM | > 10 µM | > 10 µM | > 10 µM | > 10 µM | > 10 µM | > 10 µM | > 10 µM | > 10 µM |
| O=C(CCc1ccc(O)c(O)c1)NCCc1cc(OCc2ccccc2)cc(OCc2ccccc2)c1 | 41.5 µM | 46.3 µM | 11.5 µM | 32.2 µM | 32.3 µM | 31.3 µM | 37.7 µM | 42 µM | 28.7 µM | 38.9 µM | 34.7 µM | 34 µM | > 100 µM | 20.2 µM | 17.7 µM | 40 µM | 34.5 µM |
| CCCC(=O)OC[n+]1cccc(-c2c(COC(=O)NC(C)C)c(COC(=O)NC(C)C)c3n2CCC3)c1 | > 100 µM | > 100 µM | > 66.3 µM | > 100 µM | > 100 µM | > 100 µM | > 61.6 µM | > 100 µM | > 100 µM | > 100 µM | > 100 µM | > 100 µM | > 100 µM | > 100 µM | 46 µM | > 100 µM | > 100 µM |
| c1ccc2sc(C3(N4CCCCC4)CCCCCC3)cc2c1 | 49.2 µM | 21.6 µM | 26.1 µM | 31.9 µM | > 100 µM | 66.7 µM | 33.7 µM | 68.4 µM | 31.3 µM | 49.1 µM | 31.2 µM | 67.2 µM | 34.9 µM | 38.6 µM | 64.2 µM | 47.4 µM | 34.6 µM |
| O=[N+]([O-])c1cccc2nc3ccccc3c(NCCCN3CCOCC3)c12 | 0.149 µM | 0.138 µM | 0.13 µM | 0.103 µM | 0.0298 µM | 0.267 µM | 0.0377 µM | 0.0362 µM | 0.0263 µM | 0.0854 µM | 0.054 µM | 0.0233 µM | 0.0527 µM | 0.0661 µM | 0.0785 µM | 0.0404 µM | 1.66 µM |
| O=C1c2ccccc2C(=O)N1CCCCCCNOCCCN1C(=O)c2ccccc2C1=O | > 100 µM | > 100 µM | > 100 µM | 88.4 µM | > 100 µM | > 100 µM | 93.8 µM | 47.8 µM | 30.8 µM | > 100 µM | 78.8 µM | 61.4 µM | 86 µM | > 100 µM | > 100 µM | > 100 µM | > 100 µM |
| CCCCCC(=O)OCC1(CO)C/C(=C\CC(C(C)C)C(C)C)C(=O)O1 (configuration not stated) | > 100 µM | > 100 µM | > 100 µM | > 100 µM | > 100 µM | > 100 µM | > 100 µM | > 100 µM | > 100 µM | > 100 µM | > 100 µM | > 100 µM | > 100 µM | > 100 µM | > 100 µM | > 100 µM | 70 µM |
| COC(=O)C(Cc1ccccc1I)C1=CCC2(CC1)OCCO2 (configuration not stated) | > 100 µM | > 100 µM | 81 µM | 92.7 µM | > 100 µM | > 100 µM | > 100 µM | 75.4 µM | 34.1 µM | > 100 µM | 76.2 µM | 50.4 µM | 97.1 µM | > 100 µM | > 100 µM | > 100 µM | 58.7 µM |
| CCOC(=O)c1cccc([N+](=O)[O-])c1N | > 100 µM | > 100 µM | > 100 µM | > 100 µM | > 100 µM | > 100 µM | > 100 µM | > 100 µM | > 100 µM | > 100 µM | > 100 µM | > 100 µM | > 100 µM | > 100 µM | > 100 µM | > 100 µM | > 100 µM |
| COc1cc2c(cc1OC)C1(c3ccccc3)CN(C2)Cc2cc(OC)c(OC)cc21 | > 100 µM | > 100 µM | 61.4 µM | > 100 µM | > 100 µM | > 100 µM | > 100 µM | 70.1 µM | 53.3 µM | > 100 µM | > 100 µM | 59.6 µM | > 100 µM | > 100 µM | > 100 µM | > 100 µM | > 100 µM |
